The values that follow come from patent US7041785B1, “B1-bradykinin receptor antagonists and use thereof” (Université de Sherbrooke, priority 1996, dated 2006).

Read-outs that look alike come from different tables or passages of the source. Non-standard residues stand in square brackets, D forms with d. Residues, ends and D or L forms follow the SMILES beside them. d2Nal = N[C@H](Cc1ccc2ccccc2c1)C(=O)O; Hyp = O=C(O)[C@@H]1C[C@@H](O)CN1; dTic = O=C(O)[C@H]1Cc2ccccc2CN1; Sar = CNCC(=O)O

Data set [1] addresses T1, angiotensin-converting enzyme (ACE) from rabbit lungs (Oryctolagus cuniculus, UniProt P12822).
T1 sequence (P12822 34-1310): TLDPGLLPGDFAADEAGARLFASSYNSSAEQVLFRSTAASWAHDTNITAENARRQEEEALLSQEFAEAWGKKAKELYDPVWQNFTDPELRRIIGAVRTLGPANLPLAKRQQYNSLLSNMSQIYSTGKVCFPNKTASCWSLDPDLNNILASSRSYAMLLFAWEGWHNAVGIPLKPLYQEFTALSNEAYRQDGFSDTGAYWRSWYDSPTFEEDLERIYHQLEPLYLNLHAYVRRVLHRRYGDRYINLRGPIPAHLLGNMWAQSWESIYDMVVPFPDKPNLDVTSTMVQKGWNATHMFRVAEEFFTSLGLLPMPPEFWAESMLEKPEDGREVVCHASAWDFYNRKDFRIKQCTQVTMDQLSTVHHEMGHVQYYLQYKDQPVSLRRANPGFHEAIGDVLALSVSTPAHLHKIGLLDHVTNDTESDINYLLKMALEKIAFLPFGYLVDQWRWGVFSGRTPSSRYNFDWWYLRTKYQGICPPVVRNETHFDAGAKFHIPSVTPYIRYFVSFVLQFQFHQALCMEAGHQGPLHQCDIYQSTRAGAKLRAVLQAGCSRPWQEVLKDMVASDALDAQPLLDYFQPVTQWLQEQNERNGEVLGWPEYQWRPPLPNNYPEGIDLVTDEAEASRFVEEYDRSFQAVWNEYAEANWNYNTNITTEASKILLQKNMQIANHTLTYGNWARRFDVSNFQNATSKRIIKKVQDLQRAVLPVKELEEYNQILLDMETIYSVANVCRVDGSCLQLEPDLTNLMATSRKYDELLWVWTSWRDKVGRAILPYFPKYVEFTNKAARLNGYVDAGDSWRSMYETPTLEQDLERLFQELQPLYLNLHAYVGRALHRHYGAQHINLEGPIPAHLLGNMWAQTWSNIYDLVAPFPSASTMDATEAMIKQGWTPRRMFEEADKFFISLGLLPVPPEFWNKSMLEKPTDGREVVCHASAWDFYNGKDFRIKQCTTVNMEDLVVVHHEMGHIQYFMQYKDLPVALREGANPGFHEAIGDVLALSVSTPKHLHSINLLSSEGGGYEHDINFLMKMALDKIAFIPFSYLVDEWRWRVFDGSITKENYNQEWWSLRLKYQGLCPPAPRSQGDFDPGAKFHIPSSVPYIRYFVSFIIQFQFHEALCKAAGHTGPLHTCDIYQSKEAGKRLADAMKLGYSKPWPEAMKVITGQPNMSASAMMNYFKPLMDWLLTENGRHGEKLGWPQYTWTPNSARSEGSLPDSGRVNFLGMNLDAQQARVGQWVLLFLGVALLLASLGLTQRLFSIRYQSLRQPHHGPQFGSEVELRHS
Briefly: Metabolic degradation by purified angiotensin-converting enzyme, HPLC analysis. The class given is in vitro ADME. Details: purified angiotensin-converting enzyme (ACE) from rabbit lungs; purchased Sigma, St-Louis, Mo; host or cells: purified from rabbit lungs. As to the method:
The metabolic stability of various kinin-related peptides was evaluated by incubating the peptide in the presence of purified angiotensin-converting enzyme (ACE) from rabbit lungs (purchased from Sigma, St-Louis, Mo.) dissolved in phosphate buffered saline (PBS) (50 mmol/L, pH 7.5 containing 300 mmoL/L NaCl); the final concentration of enzyme was 45 μg/mL. The experimental protocol for the measurement of ACE activity has been described elsewhere^15,16. Briefly, 200 μmol/L of peptides (40 μL) were placed in a PBS buffer and incubated for 5 min at 37EC before adding 8.5 μL of ACE (total volume of the reaction medium; 190 μL). Samples were withdrawn at 30 min intervals, immersed in boiling water for 5 min, then cooled on ice and centrifuged (5 min) before proceeding to analysis of peptides by high pressure liquid chromatography (HPLC). Results of ACE metabolism are expressed in percent of kinin degradation following the incubation (30 min) of kinin substrates with the enzyme.
Pure peptides and metabolic products were analysed by reverse-phas HPLC on a C18 μBondapak column (4.6 mm×25 cm) (Waters) of 10-μm particle size. The peptides and their fragments were eluted at the rate of 2.0 mL/min. with a linear gradient ranging from 5 to 65% of acetonitrile/TFA 0.05%/water over 20 min. at room temperature. The elution positions of these peptides were determined by following the absorbance at 214 nm. For each assay, 50 μL of the reaction medium (treated or not with ACE) were extracted and injected into the column. Concentrations of the peaks products, different from the peaks of the peptide substrate, were estimated using a computer software program (Baseline 810; Waters) that controlled also all the chromatography operations. Isolated metabolites and substrates were collected and identified by Electrospray mass spectrometry (positive mode).

In data set [2] the test system is T2, angiotensin-converting enzyme (ACE).
T2 construct: purified angiotensin-converting enzyme (ACE) from rabbit lungs; purchased Sigma, St-Louis, Mo; host or cells: purified from rabbit lungs
Described as above. The format is in vitro ADME, rabbit. The conditions noted are these: rabbit, isolated enzyme ace, pH 7.5. The method in brief:
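Purified rabbit lung ACE (45 μg/mL final) in PBS (50 mmol/L, pH 7.5, 300 mmol/L NaCl) was incubated with peptides at 37 °C; peptides were pre-incubated 5 min before enzyme addition and samples were boiled to stop the reaction. Percent kinin degradation after 30 min was quantified by C18 reverse-phase HPLC at 214 nm, with metabolites identified by electrospray MS.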

The mark [3] stands for this setting: 30 min incubation of peptide (200 μmol/L) with ACE, 37 C, read-out: ACE (% degradation).

For `CC(C)C[C@H](NC(=O)[C@H]1Cc2ccccc2CN1C(=O)[C@H](CO)NC(=O)[C@H](Cc1ccccc1)NC(=O)CNC(=O)[C@@H]1CCCN1C(=O)[C@@H]1CCCN1C(=O)[C@@H](N)CCCNC(=N)N)C(=O)O` [Compound 8, (D-Tic^7, Leu^8)desArg^9BK] (H-RPPGFS[dTic]L-OH; N-terminus and C-terminus assumed), in data set [1], the “Less susceptible to ACE proteolytic degradation, relative to Lys(Leu8)desArgBK” value (from here on “Less susceptible … relative to Lys(Leu8)desArgBK”) is 2-5 times. The compound further registered a metabolised at 0.5 h in data set [2] of 0%.

Regarding `CNCC(=O)N[C@@H](CCCNC(=N)N)C(=O)N1CCC[C@H]1C(=O)N1CCC[C@H]1C(=O)NCC(=O)N[C@@H](Cc1ccccc1)C(=O)N[C@@H](CO)C(=O)N1Cc2ccccc2C[C@@H]1C(=O)N[C@@H](CC(C)C)C(=O)O` [Compound 9, Sar(D-Tic^7, Leu^8)desArg^9BK] (H-[Sar]RPPGFS[dTic]L-OH; N-terminus and C-terminus assumed), the “Less susceptible … relative to Lys(Leu8)desArgBK” value in data set [1] was 2-5 times. Also, the metabolised at 0.5 h in data set [2] (setting [3]) came to 0%.

`CC(C)C[C@H](NC(=O)[C@H]1Cc2ccccc2CN1C(=O)[C@H](CO)NC(=O)[C@H](Cc1ccccc1)NC(=O)CNC(=O)[C@@H]1CCCN1C(=O)[C@@H]1CCCN1C(=O)[C@H](CCCNC(=N)N)NC(=O)[C@H](N)CCCNC(=N)N)C(=O)O` [Compound 12, D-Arg(D-Tic^7, Leu^8)desArg^9BK] (H-[dR]RPPGFS[dTic]L-OH; N-terminus and C-terminus assumed): in data set [1], the “Less susceptible … relative to Lys(Leu8)desArgBK” value is recorded as 2-5 times. Moreover, the metabolised at 0.5 h in data set [2] is 0%.

In the case of `CC[C@H](C)[C@H](NC(=O)[C@H]1Cc2ccccc2CN1C(=O)[C@H](CO)NC(=O)[C@H](Cc1ccccc1)NC(=O)CNC(=O)[C@@H]1CCCN1C(=O)[C@@H]1CCCN1C(=O)[C@H](CCCNC(=N)N)NC(=O)[C@H](N)CCCNC(=N)N)C(=O)O` [Compound 13, D-Arg(D-Tic^7, Ile^8)desArg^9BK] (H-[dR]RPPGFS[dTic]I-OH; N-terminus and C-terminus assumed), the “Less susceptible … relative to Lys(Leu8)desArgBK” value in data set [1] was 2-5 times. In addition, in data set [2], the metabolised at 0.5 h was 9 ± 1%.

For `CC(C)C[C@H](NC(=O)[C@H]1Cc2ccccc2CN1C(=O)[C@H](CO)NC(=O)[C@H](Cc1ccccc1)NC(=O)CNC(=O)[C@@H]1C[C@@H](O)CN1C(=O)[C@@H]1CCCN1C(=O)[C@H](CCCNC(=N)N)NC(=O)[C@H](N)CCCNC(=N)N)C(=O)O` [Compound 17, D-Arg(Hyp^3, D-Tic^7, Leu^8)desArg^9BK] (H-[dR]RP[Hyp]GFS[dTic]L-OH; N-terminus and C-terminus assumed), the “Less susceptible … relative to Lys(Leu8)desArgBK” value in data set [1] is on record as 2-5 times. In data set [2], this compound gave a metabolised at 0.5 h of 0%.

With `CC(=O)N[C@@H](CCCCN)C(=O)N[C@@H](CCCNC(=N)N)C(=O)N1CCC[C@H]1C(=O)N1CCC[C@H]1C(=O)NCC(=O)N[C@@H](Cc1ccccc1)C(=O)N[C@@H](CO)C(=O)N[C@H](Cc1ccc2ccccc2c1)C(=O)N[C@@H](CC(C)C)C(=O)O` [Compound 18, AcLys(D-βNal^7, Leu^8)desArg^9BK] (Ac-KRPPGFS[d2Nal]L-OH; C-terminus assumed), the “Less susceptible … relative to Lys(Leu8)desArgBK” value in data set [1] is 2-5 times. The metabolised at 0.5 h, 42.1 μmol/L in data set [2] is 22 ± 1%.

Take `CC[C@H](C)[C@H](NC(=O)[C@@H](Cc1ccc2ccccc2c1)NC(=O)[C@H](CO)NC(=O)[C@H](Cc1ccccc1)NC(=O)CNC(=O)[C@@H]1CCCN1C(=O)[C@@H]1CCCN1C(=O)[C@H](CCCN=C(N)N)NC(=O)[C@H](CCCCN)NC(C)=O)C(=O)O` [Compound 19, AcLys(D-βNal^7, Ile^8)desArg^9BK] (Ac-KRPPGFS[d2Nal]I-OH): the “Less susceptible … relative to Lys(Leu8)desArgBK” value in data set [1] is reported as 2-5 times. In data set [2], the metabolised at 0.5 h, 42.1 μmol/L came out at 34 ± 1%.

For `CC[C@H](C)[C@H](NC(=O)[C@@H](Cc1ccc2ccccc2c1)NC(=O)[C@H](CO)NC(=O)[C@H](Cc1ccccc1)NC(=O)CNC(=O)[C@@H]1CCCN1C(=O)[C@@H]1CCCN1C(=O)[C@H](CCCNC(=N)N)NC(=O)[C@H](N)CCCNC(=N)N)C(=O)O` [Compound 23, D-Arg(D-βNal^7, Ile^8)desArg^9BK] (H-[dR]RPPGFS[d2Nal]I-OH; N-terminus and C-terminus assumed), the “Less susceptible … relative to Lys(Leu8)desArgBK” value in data set [1] is reported as 2-5 times. In data set [2], the metabolised at 0.5 h, 42.1 μmol/L was 8 ± 1%.

For the compound `CC(C)C[C@H](NC(=O)[C@@H](Cc1ccc2ccccc2c1)NC(=O)[C@H](CO)NC(=O)[C@H](Cc1ccccc1)NC(=O)CNC(=O)[C@@H]1CCCN1C(=O)[C@@H]1CCCN1C(=O)[C@H](CCCNC(=N)N)NC(=O)[C@H](N)CCCNC(=N)N)C(=O)O` [Compound 24, D-Arg(D-βNal^7, Leu^8)desArg^9BK] (H-[dR]RPPGFS[d2Nal]L-OH; N-terminus and C-terminus assumed), the “Less susceptible … relative to Lys(Leu8)desArgBK” value in data set [1] is on record as 2-5 times. Besides, the metabolised at 0.5 h, 42.1 μmol/L in data set [2] was found to be 5 ± 1%.

As for `CC[C@H](C)[C@H](NC(=O)[C@@H](Cc1ccc2ccccc2c1)NC(=O)[C@H](CO)NC(=O)[C@H](Cc1ccccc1)NC(=O)CNC(=O)[C@@H]1CCCN1C(=O)[C@@H]1CCCN1C(=O)[C@H](CCCNC(=N)N)NC(=O)[C@H](N)CCCCN)C(=O)O` [Compound 25, D-Lys(D-βNal^7, Ile^8)desArg^9BK] (H-[dK]RPPGFS[d2Nal]I-OH; N-terminus and C-terminus assumed), the “Less susceptible … relative to Lys(Leu8)desArgBK” value in data set [1] was 2-5 times. In data set [2], the metabolised at 0.5 h, 42.1 μmol/L was 9 ± 2%.

As for `CC[C@H](C)[C@H](NC(=O)[C@@H](Cc1ccc2ccccc2c1)NC(=O)[C@H](CO)NC(=O)[C@H](Cc1ccccc1)NC(=O)CNC(=O)[C@@H]1CCCN1C(=O)[C@@H]1CCCN1C(=O)[C@H](CCCNC(=N)N)NC(=O)CNC)C(=O)O` [Compound 26, Sar(D-βNal^7, Ile^8)desArg^9BK] (H-[Sar]RPPGFS[d2Nal]I-OH; N-terminus and C-terminus assumed), the “Less susceptible … relative to Lys(Leu8)desArgBK” value in data set [1] was 2-5 times. Besides, in data set [2] (setting [3]), the metabolised at 0.5 h, 42.1 μmol/L was found to be 0%.

In the case of `CC(=O)N[C@@H](Cc1ccc(O)cc1)C(=O)NCCCCCC(=O)N[C@@H](CCCCN)C(=O)N[C@@H](CCCNC(=N)N)C(=O)N1CCC[C@H]1C(=O)N1CCC[C@H]1C(=O)NCC(=O)N[C@@H](Cc1ccccc1)C(=O)N[C@@H](CO)C(=O)N1CCC[C@H]1C(=O)N[C@@H](CC(C)C)C(=O)O` [Compound 27, AcTyrεAhxLys(Leu^8)desArg^9BK], in data set [1], the “Less susceptible … relative to Lys(Leu8)desArgBK” value was 2-5 times. Also, the metabolised at 0.5 h, 42.1 μmol/L in data set [2] turned out to be 52 ± 1%.
